Laboratory results as given in publication PMC8886048, “The Non-phosphorylating Glyceraldehyde-3-Phosphate Dehydrogenase GapN Is a Potential New Drug Target in Streptococcus pyogenes” (Frontiers in Microbiology, 2022).

Columns and labels:
S. mutans GapN = settings: ref Crow and Wittenberger, 1979; cited from earlier work
Text: E4P and phosphohydroxypyruvate were also described to inhibit GapN extracted from pea shoots, maize leaf and the green algae Chlamydomonas reinhardtii ([Kelly and Gibbs, 1973]; [Iglesias et al., 1987]). E4P and S7P are produced in the non-oxidative part of the PPP ([Stincone et al., 2015]), which is present in S. pyogenes. Thus, they could play a role in the in vivo regulation of the enzyme. […] ATP is generated during glycolysis, which provides most of the energy in S. pyogenes.

S. pyogenes GapN [1] = target: T1, S. pyogenes GapN (Streptococcus pyogenes, UniProt Q99Z67); assay: Activity of purified GapN (NADP+ reduction, absorption at 340 nm); assay type: biochemical, S. pyogenes M49 strain 591
T1 sequence (Q99Z67 1-475): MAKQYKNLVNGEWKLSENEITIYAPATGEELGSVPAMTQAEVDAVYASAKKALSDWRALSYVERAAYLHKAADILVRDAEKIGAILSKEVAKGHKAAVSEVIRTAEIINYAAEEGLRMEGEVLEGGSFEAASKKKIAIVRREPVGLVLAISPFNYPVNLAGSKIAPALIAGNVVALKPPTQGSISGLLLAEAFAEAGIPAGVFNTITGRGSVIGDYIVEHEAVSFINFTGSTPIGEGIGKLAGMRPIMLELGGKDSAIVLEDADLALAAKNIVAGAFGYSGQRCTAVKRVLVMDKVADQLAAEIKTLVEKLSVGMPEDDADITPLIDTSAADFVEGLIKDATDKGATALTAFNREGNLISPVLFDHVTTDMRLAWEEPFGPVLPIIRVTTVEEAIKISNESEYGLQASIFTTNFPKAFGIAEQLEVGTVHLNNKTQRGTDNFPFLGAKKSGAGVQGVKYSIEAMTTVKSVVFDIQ
Method: (§1) Fractions containing pure protein were pooled and dialyzed overnight in PBS or 0.1 M citric acid (pH 6.0) to prepare them for enzymatic assays.
(§2) For the measurement of activity of purified GapN, the protein concentration was adjusted to 70 μg/ml. The specific GapN activity was measured as described in [Iddar et al. (2003)] with modification of the protocol. […] The reaction was started by adding DL-G3P. […] As controls, the assay was carried out without addition of protein sample and without addition of G3P, respectively. GapN activity was calculated with the Lambert-Beer equation and expressed in units per milligram of total protein (U/mg), where one unit is defined as the formation of 1 μmol NADPH per minute. […] Potential activating or inhibiting effects on GapN activity were tested by adding 25 mM NaCl, 25 mM KCl, 25 mM NH4Cl, 10 mM D-glucose, 10 mM D-fructose, 10 mM sodium pyruvate, 10 mM ATP, 2 mM erythrose 4-phosphate (E4P), 2 mM sedoheptulose 7-phosphate (S7P), 0.4 mM NADH or 0.4 mM NADPH to the assay mixture.

S. pyogenes GapN [2] = settings: ref Iddar et al., 2003; cited from earlier work
Text: The non-phosphorylating glyceraldehyde-3-phosphate dehydrogenase GapN has been predicted to be an essential enzyme in S. pyogenes M49 based on gene essentiality analyses via transposon mutant libraries ([Le Breton et al., 2015]).

[3] = target: non-phosphorylating glyceraldehyde-3-phosphate dehydrogenase GapN of S. pyogenes M49 strain 591 (wild type) (S. pyogenes M49 strain 591); assay: SEC-MALS; HiLoad 16/600 Superdex 200 pg, room temperature, 1 x PBS pH 7.4, 0.5 ml/min; oligomeric state in solution
[4] = substrate: O=CC(O)COP(=O)(O)O; assay: purified protein, by the assay type; assay type: biochemical, S. pyogenes M49 strain 591; settings: other: Strep-tagged GapN; ± standard error printed (0.05 NADP; 0.19 DL-G3P)
Method: as §1, §2

**Q.** With Nc1ncnc2c1ncn2[C@@H]1O[C@H](COP(=O)(O)OP(=O)(O)OP(=O)(O)O)[C@@H](O)[C@H]1O [ATP] as the molecule, how does the “Effect on S. mutans GapN activity” value (S. mutans GapN) read?
**A.** inhibited by ATP to some extent

**Q.** What about the “Reduction of the activity of purified GapN” value (S. pyogenes GapN [1]; 10 mM ATP added to standard assay (10 mM NADP+, 2 mM DL-G3P, pH 8.5), n = 4) of the same molecule?
**A.** 50%

**Q.** What does the source list for O=C[C@H](O)[C@H](O)COP(=O)(O)O [E4P, erythrose 4-phosphate]?
**A.** Effect on S. mutans GapN activity (S. mutans GapN): inhibitory effects; Reduction of the activity of purified GapN (S. pyogenes GapN [1]; 2 mM E4P added to standard assay (10 mM NADP+, 2 mM DL-G3P, pH 8.5), n = 4): 90%; Specific GapN activity relative to standard assay mix (S. pyogenes GapN [1]; in the presence of 2 mM E4P, mean ± SD, n = 4): 10.8 ± 1.9%

**Q.** With O=CC(O)COP(=O)(O)O (stereo not drawn) [G3P, glyceraldehyde 3-phosphate] as the molecule, how does the Km (S. pyogenes GapN [2]) read?
**A.** 666 µM

**Q.** Which results are given for O=C(CO)[C@@H](O)[C@H](O)[C@H](O)[C@H](O)COP(=O)(O)O [S7P, sedoheptulose 7-phosphate]?
**A.** Effect on S. mutans GapN activity (S. mutans GapN): inhibitory effects; Effect on specific activity of purified GapN (S. pyogenes GapN [1]; added to standard assay: 25 mM salts, 10 mM sugars/pyruvate, 2 mM S7P, 0.4 mM NADH or NADPH, n = 4, one-way ANOVA): does not inhibit

**Q.** With O=C(O)C(=O)COP(=O)(O)O [phosphohydroxypyruvate] as the molecule, how does the “Effect on S. mutans GapN activity” value (S. mutans GapN) read?
**A.** inhibitory effects

**Q.** Which Km (S. pyogenes GapN [2]) does the source give for NADP here?
**A.** 385 µM

**Q.** With “non-phosphorylating glyceraldehyde-3-phosphate dehydrogenase GapN of S. pyogenes M49 strain 591 (wild type) (enzyme)” as the molecule, how does the stoichiometry N [3] read?
**A.** 4

B1: S. pyogenes GapN (Streptococcus pyogenes serotype M1) (protein)
chain: MAKQYKNLVNGEWKLSENEITIYAPATGEELGSVPAMTQAEVDAVYASAKKALSDWRALSYVERAAYLHKAADILVRDAEKIGAILSKEVAKGHKAAVSEVIRTAEIINYAAEEGLRMEGEVLEGGSFEAASKKKIAIVRREPVGLVLAISPFNYPVNLAGSKIAPALIAGNVVALKPPTQGSISGLLLAEAFAEAGIPAGVFNTITGRGSVIGDYIVEHEAVSFINFTGSTPIGEGIGKLAGMRPIMLELGGKDSAIVLEDADLALAAKNIVAGAFGYSGQRCTAVKRVLVMDKVADQLAAEIKTLVEKLSVGMPEDDADITPLIDTSAADFVEGLIKDATDKGATALTAFNREGNLISPVLFDHVTTDMRLAWEEPFGPVLPIIRVTTVEEAIKISNESEYGLQASIFTTNFPKAFGIAEQLEVGTVHLNNKTQRGTDNFPFLGAKKSGAGVQGVKYSIEAMTTVKSVVFDIQ
**Q.** With B1 as the molecule, how does the Km [4] read?
**A.** 0.58 mM
